This is an account of results in ChEMBL document CHEMBL5150033, “Synthesis, evaluation and mechanism exploration of 2-(N-(3-nitrophenyl)-N-phenylsulfonyl)aminoacetohydroxamic acids as novel urease inhibitors” (Bioorg Med Chem Lett, 2022).

In experiment [1] the target is T1, Urease subunit alpha/Urease subunit beta (Helicobacter pylori (strain ATCC 700392 / 26695) (Campylobacterpylori), UniProt P69996). The experiment can be described thus: Inhibition of Helicobacter pylori urease. It counts as protein-complex assay.
The test system of another experiment is HepG2. Nature of the experiment: Antiproliferative activity against human HepG2 cells assessed as reduction in cell viability at 250 ug/ml by MTT assay relative to control. To be noted: dose 250 µg/ml. It counts as functional. A general note: Tetrazolium dyes change colour on reduction, which living cells bring about.
The next experiment deals with SGC-7901. The experiment can be described thus: Antiproliferative activity against human SGC-7901 cells assessed as reduction in cell viability at 250 ug/ml by MTT assay relative to control. It counts as functional. Particulars: dose 250 µg/ml.
For a further experiment, the system named is K562. Nature of the experiment: Antiproliferative activity against human K562 cells assessed as reduction in cell viability at 250 ug/ml by MTT assay relative to control. The experiment is classed as functional. Particulars: dose 250 µg/ml.
For experiment [2], the target named is T2, Urease subunit alpha/Urease subunit beta (Helicobacter pylori (strain ATCC 700392 / 26695) (Campylobacterpylori)) (UniProt P69996+P14916). The experiment can be described thus: Potency index, ratio of acetohydroxamic acid IC50 to test compound IC50 for inhibition of Helicobacter pylori urease. It counts as protein-complex assay.
In experiment [3] the target is T1, Urease subunit alpha/Urease subunit beta. The experiment can be described thus: Binding affinity to Helicobacter pyroli urease assessed as dissociation constant by surface plasmon resonance assay. It counts as protein-complex assay. (In general: SPR reads the build-up and loss of mass on a sensor chip optically.)
For experiment [4] the target is unchanged. Nature of the experiment: Mixed type inhibition of Helicobacter pyroli urease assessed as dissociation constant for EI complex by microplate reader analysis. The experiment is classed as protein-complex assay.
For experiment [5] the target is unchanged. Nature of the experiment: Mixed type inhibition of Helicobacter pyroli urease assessed as dissociation constant for ESI complex by microplate reader analysis. It counts as protein-complex assay.
Experiment [6] deals with T2, Urease subunit alpha/Urease subunit beta (Helicobacter pylori (strain ATCC 700392 / 26695) (Campylobacterpylori)). The experiment can be described thus: Inhibition of Helicobacter pyroli urease at 100 ug/ml […]. The experiment is classed as protein-complex assay. Particulars: dose 100.0 µg/ml, time <= 120.0 min, TDE = time-dependent effect.

Experiment [7] shares this target. Nature of the experiment: Inhibition of Helicobacter pyroli urease assessed as maximum inhibition at 100 ug/ml measured after 50 mins […]. It counts as protein-complex assay. To be noted: dose 100.0 µg/ml.

Active and inactive are the calls of the source. No cut-off for these calls is given here.

T2 sequence (P14916 whole entry, looked up): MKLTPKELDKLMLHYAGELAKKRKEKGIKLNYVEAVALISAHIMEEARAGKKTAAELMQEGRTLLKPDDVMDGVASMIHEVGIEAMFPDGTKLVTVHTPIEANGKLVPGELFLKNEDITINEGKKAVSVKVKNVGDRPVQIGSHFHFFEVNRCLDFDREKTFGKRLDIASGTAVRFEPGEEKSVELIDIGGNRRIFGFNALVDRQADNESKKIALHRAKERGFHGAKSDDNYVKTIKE
T2 sequence (P69996 whole entry, looked up): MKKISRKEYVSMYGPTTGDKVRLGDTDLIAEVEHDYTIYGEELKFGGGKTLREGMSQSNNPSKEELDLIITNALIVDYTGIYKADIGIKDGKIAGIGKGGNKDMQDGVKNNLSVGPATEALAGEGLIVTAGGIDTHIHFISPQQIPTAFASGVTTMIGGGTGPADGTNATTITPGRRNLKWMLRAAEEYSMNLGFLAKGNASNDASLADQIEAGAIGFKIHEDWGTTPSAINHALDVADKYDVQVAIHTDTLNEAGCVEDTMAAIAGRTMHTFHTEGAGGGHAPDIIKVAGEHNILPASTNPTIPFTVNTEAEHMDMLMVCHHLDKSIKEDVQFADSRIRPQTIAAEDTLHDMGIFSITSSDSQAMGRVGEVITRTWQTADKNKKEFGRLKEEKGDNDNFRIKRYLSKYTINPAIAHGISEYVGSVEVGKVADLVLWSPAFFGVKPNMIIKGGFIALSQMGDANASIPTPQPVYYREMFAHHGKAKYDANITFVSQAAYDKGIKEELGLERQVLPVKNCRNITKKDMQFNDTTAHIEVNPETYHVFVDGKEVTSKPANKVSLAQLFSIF
T1 sequence (P69996 whole entry): as the sequence (P69996 whole entry, looked up) above
T1 sequence (P14916 whole entry, further chain): as the sequence (P14916 whole entry, looked up) above

What is called IC50 is the concentration at which inhibition is half-maximal. Consider `O=C(CN(c1cccc([N+](=O)[O-])c1)S(=O)(=O)c1ccc(F)cc1)NO`, for which, in experiment [1], the midpoint of inhibition, the IC50, lay at 3.33 µM. In addition, the Activity in the experiment with HepG2 was 91%; in the experiment with SGC-7901 it was 90%; with K562, 92%.

For `O=C(CN(c1cccc([N+](=O)[O-])c1)S(=O)(=O)c1cc(F)ccc1F)NO`, half-maximal inhibition in experiment [1] (IC50) required 16.4 µM. Besides, the results for the Activity with HepG2, in the experiment on SGC-7901 and in the experiment on K562 were 89%, 92% and 88%, respectively.

Compound `O=C(CN(c1cccc([N+](=O)[O-])c1)S(=O)(=O)c1ccc(C(F)(F)F)cc1)NO` gave an IC50 in experiment [1] of 9.57 µM. The Activity is recorded as 93% in the experiment on HepG2, 90% in the experiment with SGC-7901 and 87% in the experiment on K562.

With `O=C(CN(c1cccc([N+](=O)[O-])c1)S(=O)(=O)c1ccccc1)NO`, it took 2.41 µM to reach half-maximal inhibition in experiment [1] (IC50). Moreover, the figures for the Activity in the experiment with HepG2, with SGC-7901 and in the experiment with K562 were 83%, 79% and 76%, respectively.

In [1], `O=C(CN(c1cccc([N+](=O)[O-])c1)S(=O)(=O)c1ccccc1F)NO` gave an IC50 of 6.9 µM. The Activity in the experiment with HepG2 is reported as 80%; in the experiment on SGC-7901 it was 92%; with K562 it was 87%.

For `Cc1ccccc1S(=O)(=O)N(CC(=O)NO)c1cccc([N+](=O)[O-])c1`, in experiment [1], inhibition was half-maximal at 7.1 µM (IC50). The figures for the Activity in the experiment on HepG2, in the experiment with SGC-7901 and in the experiment on K562 were 87%, 90% and 90%, respectively.

In experiment [1], `Cc1cc(C)c(S(=O)(=O)N(CC(=O)NO)c2cccc([N+](=O)[O-])c2)c(C)c1` had an IC50 of 96.4 µM. Further, the Activity is given as 87% in the experiment with HepG2, 85% in the experiment on SGC-7901 and 94% in the experiment on K562.

With `O=C(CN(c1cccc([N+](=O)[O-])c1)S(=O)(=O)c1cccc(F)c1)NO`, half-maximal inhibition in experiment [1] (IC50) required 0.74 µM. Moreover, the figures for the Activity with HepG2, in the experiment with SGC-7901 and in the experiment with K562 were 89%, 90% and 93%, respectively. In experiment [2], the Ratio IC50 was found to be 35.

As to `Cc1ccc(S(=O)(=O)N(CC(=O)NO)c2cccc([N+](=O)[O-])c2)cc1`, it took 5.91 µM to reach half-maximal inhibition in experiment [1] (IC50). The Activity in the experiment with HepG2 is on record as 80%; in the experiment on SGC-7901, 84%; in the experiment on K562, 86%.

By Kd is commonly meant the free concentration of one partner at which half of the binding sites on the other are occupied at equilibrium, for simple one-to-one binding. A word on the Ki: it is the dissociation constant of the complex between target and ligand, obtained from inhibition or displacement. As for `O=C(CN(c1cccc([N+](=O)[O-])c1)S(=O)(=O)c1ccc(Br)cc1)NO`, the half-inhibitory concentration (IC50) in experiment [1] is 0.13 µM. Further, the Activity in the experiment on HepG2 amounted to 91%; with SGC-7901, 86%; with K562 it was 87%. Moreover, the Ratio IC50 in [2] was 200. Further, in experiment [3], the dissociation constant (Kd) is 0.00034 µM. Moreover, the results for the Ki in experiment [4] and in experiment [5] were 0.065 µM and 1.2 µM, respectively. The inhibition result in [6] was “Tde”. The inhibition result in experiment [7] is “Active”.

In experiment [1], `O=C(CN(c1cccc([N+](=O)[O-])c1)S(=O)(=O)c1ccccc1Cl)NO` yielded a concentration for half-maximal inhibition (IC50) of 22 µM. The Activity is recorded as 93% in the experiment with HepG2, 90% in the experiment with SGC-7901 and 91% in the experiment with K562.

Compound `CC(=O)NO` [ACETOHYDROXAMIC ACID] returned an IC50 in experiment [1] of 26.3 µM. Moreover, the values for the Activity in the experiment on HepG2, with SGC-7901 and in the experiment on K562 were 76%, 72% and 64%, respectively.

In [1], `O=C(CN(c1cccc([N+](=O)[O-])c1)S(=O)(=O)c1cc(Cl)ccc1Cl)NO` yielded a half-maximal inhibitory concentration (IC50) of 27.5 µM. For the same compound, the Activity is on record as 80% in the experiment with HepG2, 81% in the experiment with SGC-7901 and 84% in the experiment with K562.

Compound `O=C(CN(c1cccc([N+](=O)[O-])c1)S(=O)(=O)c1ccc(Cl)cc1)NO` registered a half-maximal inhibitory concentration (IC50) in experiment [1] of 1.75 µM. Besides, the Activity in the experiment on HepG2 amounted to 86%; with SGC-7901, 89%; in the experiment with K562, 88%.
